# Assays:
# [1] = tested on: L. infantum promastigotes; parameters: method as in PMID 30475811; conditions: read-out: IC50 anti-proliferative effect; cited from earlier work
# hGR = tested on: hGR; parameters: method as in PMID 30475811; conditions: cited from earlier work
# LiTR [2] = molecular target: T1, LiTR (Leishmania infantum, UniProt A4HSF7); parameters: method as in PMID 30475811; conditions: residual LiTR activity with 100 μM inhibitor; reference compound; cited from earlier work
# T1 construct: LiTR has been expressed and purified as reported previously; made in house
# T1 sequence (A4HSF7 1-491): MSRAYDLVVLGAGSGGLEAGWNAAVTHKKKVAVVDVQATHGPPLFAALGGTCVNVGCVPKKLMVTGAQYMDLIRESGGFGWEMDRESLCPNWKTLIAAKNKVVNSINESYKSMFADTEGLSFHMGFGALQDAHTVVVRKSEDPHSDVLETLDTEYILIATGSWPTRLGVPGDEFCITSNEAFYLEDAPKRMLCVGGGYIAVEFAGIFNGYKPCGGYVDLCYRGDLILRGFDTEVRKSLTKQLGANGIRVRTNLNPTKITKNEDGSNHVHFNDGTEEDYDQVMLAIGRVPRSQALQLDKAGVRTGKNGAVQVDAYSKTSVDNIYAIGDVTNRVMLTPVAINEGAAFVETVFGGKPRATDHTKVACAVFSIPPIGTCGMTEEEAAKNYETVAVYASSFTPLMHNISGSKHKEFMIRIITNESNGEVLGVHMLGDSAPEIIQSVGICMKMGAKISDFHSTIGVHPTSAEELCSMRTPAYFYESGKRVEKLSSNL
# LiTR [3] = molecular target: T1, LiTR; experiment: LiTR enzymatic inhibition assay (NADPH oxidation, absorbance at 340 nm); assay type: biochemical; conditions: for activity at 100 µM: read-out: LiTR Activity (% at 100 µM)
# Experimental: (§1) Furthermore, the best acting compound, namely 2b, reduced the activity of the enzyme by 47%.
# Enzymatic inhibition assays were performed at 25 °C using a JASCO V650 spectrophotometer equipped with a JASCO EHC-716 Peltier unit. LiTR (50 nM) was mixed with 100 μM of the compounds and 150 μM trypanothione in 50 mM HEPES pH 7.4, 40 mM NaCl, and incubated at 25 °C for 3 min. The reaction was started upon addition of 100 μM NADPH. Oxidation of the NADPH was followed as a decrease in absorbance at 340 nm. The best inhibitor candidate (2b) was then tested under the same conditions at concentrations ranging from 0.1 to 200 μM to determine the IC50. LiTR activity was determined as V0(compound)/V0(control)*100, where V0 is the initial velocity. The IC50 was determined using a dose response logistic equation defined by the Kaleidagraph software as ymin + (ymax-ymin)/(1 + (x/IC50)^slope).
# [4] = molecular target: T2, human homolog glutathione reductase (Homo sapiens, UniProt P00390); experiment: Glutathione reductase inhibition assay (NADPH oxidation, absorbance at 340 nm); assay type: biochemical
# T2 construct: purchased Sigma Aldrich
# T2 sequence (P00390 44-522): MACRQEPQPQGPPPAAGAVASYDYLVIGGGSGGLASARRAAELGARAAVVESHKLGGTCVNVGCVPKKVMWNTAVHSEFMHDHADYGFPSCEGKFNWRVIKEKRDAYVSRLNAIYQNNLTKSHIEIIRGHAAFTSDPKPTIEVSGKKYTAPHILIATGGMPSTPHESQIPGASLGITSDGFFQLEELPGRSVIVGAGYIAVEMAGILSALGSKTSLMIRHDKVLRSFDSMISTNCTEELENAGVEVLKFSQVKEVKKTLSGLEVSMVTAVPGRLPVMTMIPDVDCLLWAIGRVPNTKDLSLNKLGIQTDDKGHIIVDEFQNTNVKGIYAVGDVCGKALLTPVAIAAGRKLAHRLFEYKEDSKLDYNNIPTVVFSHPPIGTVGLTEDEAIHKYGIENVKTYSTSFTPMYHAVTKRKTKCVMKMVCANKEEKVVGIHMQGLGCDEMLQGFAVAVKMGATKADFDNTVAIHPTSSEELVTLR
# Experimental: as §1
# Figure S9: Conformation of compound 3c with the lowest energy in the most populated cluster.
# Figure S10. Inhibition kinetics of the glutathione reductase in the presence of compound 2b. Inhibition assays were performed at 25 °C using a JASCO V650 spectrophotometer equipped with a JASCO EHC-716 Peltier unit. Glutathione Reductase (GR) 50 nM, (purchased from Sigma Aldrich) was mixed with varying concentrations of compound 2b (0.1 to 200 μM) and 150 μM oxidized glutathione in 50 mM HEPES pH 7.4, 40 mM NaCl; and incubated at 25°C for 3 minutes. The reaction was started upon addition of 100 μM NADPH. Oxidation of NADPH was followed as a decrease in absorbance at 340 nm. GR activity was determined as V0(compound)/V0(control)*100 where V0 is the initial velocity. The IC50 was determined using a dose response logistic equation defined by the Kaleidagraph software as ymin+(ymax-ymin)/(1+(x/IC50)^slope). […]
SMILES,activity at 100 µM (LiTR [3]) [%],also measured
"CCN(CC)CCOC(=O)c1ccc(NCCC(=O)c2ccc([N+](=O)[O-])cc2)cc1 [Compound 1, 2-(diethylamino)ethyl 4-((3-(4-nitrophenyl)-3-oxopropyl)amino)benzoate]",,IC50 [1]: 12.4 µM; IC50 (hGR): > 85 µM; LiTR Activity (% at 100 µM) (LiTR [2]): <10.0 [10] %
"CCN(CC)CCOC(=O)c1ccc(NCCC(=O)c2ccc(-c3ccccc3)cc2)cc1 [Compound 2a, 2-(Diethylamino)ethyl 4-((3-([1,1’-biphenyl]-4-yl)-3-oxopropyl)amino)benzoate]",55.4 ± 13.3,
"CCN(CC)CCOC(=O)c1ccc(NCCC(=O)c2ccc(-c3ccc(Cl)cc3)cc2)cc1 [Compound 2b, 2-(Diethylamino)ethyl 4-((3-(4’-chloro-[1,1’-biphenyl]-4-yl)-3-oxopropyl)amino)benzoate]",47 ± 9.7,"IC50 ([4]; 25 °C, 50 nM GR, 150 μM oxidized glutathione, 100 μM NADPH): > 150 µM; IC50 on glutathione reductase relative to IC50 on TR (selectivity) ([4]; GR versus LiTR): more than two-fold higher; residual LiTR activity (LiTR [3]; 100 μM compound): 47%; IC50 (LiTR [3]; 25 °C, 150 μM trypanothione, 100 μM NADPH, average of three experiments): 65 µM"
"CCN(CC)CCOC(=O)c1ccc(NCCC(=O)c2ccc(Br)cc2)cc1 [Compound 2c, 2-(Diethylamino)ethyl 4-((3-(4-bromophenyl)-3-oxopropyl)amino)benzoate]",73.8 ± 4.6,
"CCN(CC)CCOC(=O)c1ccc(NCCC(=O)c2ccccc2)cc1 [Compound 2d, 2-(Diethylamino)ethyl 4-((3-oxo-3-phenylpropyl)amino)benzoate]",73.8 ± 4.4,
"CCN(CC)CCOC(=O)c1ccc(NCCC(=O)c2ccc(F)cc2)cc1 [Compound 2e, 2-(Diethylamino)ethyl 4-((3-(4-fluorophenyl)-3-oxopropyl)amino)benzoate]",60.5 ± 4.1,
"CCN(CC)CCOC(=O)c1ccc(N(CCC(=O)c2ccc(F)cc2)CCC(=O)c2ccc(F)cc2)cc1 [Compound 2f, 2-(Diethylamino)ethyl 4-(bis(3-(4-fluorophenyl)-3-oxopropyl)amino)benzoate]",75 ± 2.4,
"CCN(CC)CCNC(=O)c1ccc(NCCC(=O)c2ccc(-c3ccccc3)cc2)cc1 [Compound 3a, 4-((3-([1,1’-Biphenyl]-4-yl)-3-oxopropyl)amino)-N-(2-(diethylamino)ethyl)benzamide]",68.4 ± 6.7,
"CCN(CC)CCNC(=O)c1ccc(NCCC(=O)c2ccc(-c3ccc(Cl)cc3)cc2)cc1 [Compound 3b, 4-((3-(4’-Chloro-[1,1’-biphenyl]-4-yl)-3-oxopropyl)amino)-N-(2-(diethylamino)ethyl)benzamide]",59.4 ± 2.4,
"CCN(CC)CCNC(=O)c1ccc(NCCC(=O)c2ccc(Br)cc2)cc1 [Compound 3c, 4-((3-(4-Bromophenyl)-3-oxopropyl)amino)-N-(2-(diethylamino)ethyl)benzamide]",87.3 ± 1.9,
